Measurements as given in BindingDB's records for patent WO2023019327 (Mindset Pharma, 2023).

Biological target: 5-hydroxytryptamine receptor 2A (Homo sapiens, UniProt P28223)
Experiment: FLIPR Calcium 6 Assay
Experimental: The dye is diluted with assay buffer (20mM HEPES in 1x HBSS, PH7.4); Probenecid was added to the final concentration of 5 mM; […]. Vortexed vigorously for 1-2 minutes. Medium is removed from cell plate by flicking the cell plate on towel papers. […] The cell plate is placed on plate shaker, the plate was agitated at 600rpm for 2 minutes. The plate is incubated at 37°C for 2 hours followed by additional 15-minute incubation at 25°C. 3*compound in assay buffer is prepared: a. Reference compounds are diluted to required concentration with DMSO. The compounds were added to a 384-well compound plate; b. Serial dilutions are performed; c. […] Add […] assay buffer to the compound plate; f.

Sequence of 5-hydroxytryptamine receptor 2A (P28223 whole entry): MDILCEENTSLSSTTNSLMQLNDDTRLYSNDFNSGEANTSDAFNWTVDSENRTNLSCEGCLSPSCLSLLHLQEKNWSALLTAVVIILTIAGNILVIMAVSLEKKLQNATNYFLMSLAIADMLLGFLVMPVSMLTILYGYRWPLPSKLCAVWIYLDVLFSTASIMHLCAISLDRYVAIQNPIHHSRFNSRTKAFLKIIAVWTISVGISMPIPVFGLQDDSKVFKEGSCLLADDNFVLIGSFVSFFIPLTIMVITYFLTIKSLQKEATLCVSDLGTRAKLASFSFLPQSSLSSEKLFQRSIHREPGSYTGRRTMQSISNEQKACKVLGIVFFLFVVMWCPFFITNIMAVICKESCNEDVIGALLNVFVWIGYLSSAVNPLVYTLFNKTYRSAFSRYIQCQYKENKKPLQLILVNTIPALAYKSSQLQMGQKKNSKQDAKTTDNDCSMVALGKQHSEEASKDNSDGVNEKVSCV

| SMILES | EC50 [µM] |
| --- | --- |
| CN(C)CCc1c[nH]c2ccccc12 [2-(1H-indol-3-yl)-N,N-dimethylethanamine] | < 10 |
| CCCCC/C=C\C/C=C\CCCCCCCC(=O)N(C)CCc1c[nH]c2ccccc12 [WO2023019367, Compound I-1] | > 30 |
| CCCCC/C=C\C/C=C\CCCCCCCC(=O)N(C)CCc1c[nH]c2ccc(OC)cc12 [WO2023019367, Compound I-21] | > 30 |
| CCCCC/C=C\C/C=C\CCCCCCCC(=O)N1CCCC1Cc1c[nH]c2ccccc12 (centres undefined) [WO2023019367, Compound I-46] | > 30 |
| CCCCC/C=C\C/C=C\CCCCCCCC(=O)N1CCCC1Cc1c[nH]c2ccc(OC)cc12 (centres undefined) [WO2023019367, Compound I-55] | > 30 |
| CCCCC/C=C\C/C=C\CCCCCCCC(=O)N1CCC(c2c[nH]c3ccc(OC)cc23)C1 (centres undefined) [WO2023019367, Compound I-81] | > 30 |
| CCCCC/C=C\C/C=C\CCCCCCCC(=O)N1CCC(c2c[nH]c3ccccc23)C1 (centres undefined) [WO2023019367, Compound I-84] | > 30 |
| CCCCC/C=C\C/C=C\CCCCCCCC(=O)N1CCC(c2c[nH]c3ccccc23)CC1 [WO2023019367, Compound I-87] | > 30 |
| CCCCC/C=C\C/C=C\CCCCCCCC(=O)N1CCC(c2c[nH]c3ccc(OC)cc23)CC1 [WO2023019367, Compound I-88] | > 30 |
